Measurements published in PMC11331448 (Journal of chemical information and modeling, 2024).

Target: BChE (Homo sapiens, UniProt P06276)
Settings: BChE versus AChE inhibition, colorimetric kits

BChE, sequence (P06276 29-602, species assumed): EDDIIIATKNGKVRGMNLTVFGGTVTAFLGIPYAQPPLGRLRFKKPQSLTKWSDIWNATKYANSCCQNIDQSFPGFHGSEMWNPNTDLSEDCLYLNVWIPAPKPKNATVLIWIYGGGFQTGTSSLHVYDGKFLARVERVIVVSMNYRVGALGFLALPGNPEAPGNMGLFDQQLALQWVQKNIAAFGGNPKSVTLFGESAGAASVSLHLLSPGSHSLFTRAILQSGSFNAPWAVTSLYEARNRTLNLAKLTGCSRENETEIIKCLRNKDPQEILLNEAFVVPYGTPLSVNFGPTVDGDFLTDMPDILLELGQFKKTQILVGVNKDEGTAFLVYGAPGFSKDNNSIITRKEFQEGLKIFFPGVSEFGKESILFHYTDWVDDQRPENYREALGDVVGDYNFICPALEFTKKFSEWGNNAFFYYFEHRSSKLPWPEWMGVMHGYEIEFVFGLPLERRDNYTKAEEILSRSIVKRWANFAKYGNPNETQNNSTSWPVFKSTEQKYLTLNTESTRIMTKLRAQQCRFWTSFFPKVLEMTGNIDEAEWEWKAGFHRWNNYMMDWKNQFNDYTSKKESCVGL

Structure (SMILES): OC(CN1CCCCC1)c1c[nH]c2ccccc12 (stereo not shown) [CPI7075, 1-(1H-indol-3-yl)-2-(piperidin-1-yl)ethanol]
- BChE selectivity in vitro: selective BChE inhibitors
